Our source for the IC50 values is paper PMC12682947, “Identification of New KCNT1‐Epilepsy Drugs by In Silico, Cell, and Drosophila Modeling” (Annals of Neurology, 2025).

Structures can show the parent of a compound that is named as a salt.

A word on the IC50: it is the midpoint of a concentration-inhibition curve.

The target in this assay is T1, R928C mutant KCNT1 channels (Homo sapiens, UniProt Q5JUK3, R909C).
T1 construct: YFP-6His; expressed in transfected cells; host or cells: HEK293T
T1 sequence (Q5JUK3 1-1235 isoform Q5JUK3-3 R928C): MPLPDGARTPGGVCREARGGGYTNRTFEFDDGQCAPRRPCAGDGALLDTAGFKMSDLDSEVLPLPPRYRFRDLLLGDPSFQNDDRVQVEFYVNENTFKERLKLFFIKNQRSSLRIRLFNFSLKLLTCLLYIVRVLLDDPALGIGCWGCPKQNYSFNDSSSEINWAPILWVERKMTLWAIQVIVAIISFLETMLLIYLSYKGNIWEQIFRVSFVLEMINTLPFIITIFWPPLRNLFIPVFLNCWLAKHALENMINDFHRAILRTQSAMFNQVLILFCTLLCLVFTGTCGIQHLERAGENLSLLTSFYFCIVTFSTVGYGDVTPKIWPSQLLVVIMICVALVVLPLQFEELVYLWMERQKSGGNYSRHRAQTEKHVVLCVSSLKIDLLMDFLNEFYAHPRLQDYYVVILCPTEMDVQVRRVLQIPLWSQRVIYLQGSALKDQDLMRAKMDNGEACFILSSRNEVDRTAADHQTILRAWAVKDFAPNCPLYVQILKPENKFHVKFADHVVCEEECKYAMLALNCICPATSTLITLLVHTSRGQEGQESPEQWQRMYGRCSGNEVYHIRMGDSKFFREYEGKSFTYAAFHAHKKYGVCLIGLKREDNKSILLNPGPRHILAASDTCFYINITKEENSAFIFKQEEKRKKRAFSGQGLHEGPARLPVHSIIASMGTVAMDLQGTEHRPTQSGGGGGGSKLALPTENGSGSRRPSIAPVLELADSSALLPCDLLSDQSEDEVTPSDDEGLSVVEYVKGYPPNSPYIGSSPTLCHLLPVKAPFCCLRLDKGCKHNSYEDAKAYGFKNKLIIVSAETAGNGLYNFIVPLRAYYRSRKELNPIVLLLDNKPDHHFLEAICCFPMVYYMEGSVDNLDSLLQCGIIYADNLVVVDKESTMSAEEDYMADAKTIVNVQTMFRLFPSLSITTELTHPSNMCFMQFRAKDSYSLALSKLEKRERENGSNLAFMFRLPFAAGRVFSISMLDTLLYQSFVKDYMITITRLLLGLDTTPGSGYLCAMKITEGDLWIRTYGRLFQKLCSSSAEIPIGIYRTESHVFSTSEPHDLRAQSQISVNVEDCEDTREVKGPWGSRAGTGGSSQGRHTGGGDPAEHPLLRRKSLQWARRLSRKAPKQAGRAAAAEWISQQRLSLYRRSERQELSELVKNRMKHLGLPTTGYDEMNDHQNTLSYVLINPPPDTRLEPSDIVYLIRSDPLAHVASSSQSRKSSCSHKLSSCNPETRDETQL
The assay is described as follows: Inside-out patch clamp of HEK293T cells expressing R928C KCNT1. It counts as cell-based. The note with it: inside-out patches, mean ± SEM. The procedure:
The CHO cells were cultured in Dulbecco's modified Eagle's Medium (ThermoFisher, UK) supplemented with 10% (v/v) fetal bovine serum, 50 U/ml penicillin and 0.05 mg/ml streptomycin, and incubated at 37°C in 5% CO2 atmosphere. For whole cell recording of WT/Y796H KCNT1, CHO cells were transiently co‐transfected with concatemeric WT/Y796H and EYFP, as described previously.[29] For electrophysiological experiments, cells were plated onto borosilicate glass cover slips and used 2 to 4 days later. Human embryonic kidney 293T cells (HEK293T) were cultured in the same manner, but with medium supplemented with 2 mM L‐glutamine, and 1% (v/v) nonessential amino acids. For excised inside‐out recording of homomeric WT or mutant YFP‐tagged KCNT1, HEK293T cells plated on glass cover slips were transfected using Attractene Transfection Reagent (Qiagen, Germany) according to the manufacturer's instructions and used 2 to 3 days later.
Inside‐out patch clamp recordings were made at room temperature (23°C) from transiently transfected HEK293T cells, as described previously.[11] The pipette solution contained, in mM, 140 NaCl, 4 KCl, 2 CaCl2, 2 MgCl2, and 10 HEPES adjusted to pH 7.4 with NaOH. […] KCNT1 currents were recorded using 2 voltage protocols, depending on the number of active channels in the patch before drug application. Macroscopic currents (number of active channels > 15) were recorded in response to 100 ms voltage ramps between −120 and 120 mV applied every 2 seconds from a holding potential of −78 mV. […] With a lower number of active channels in the patch (3–15), current traces were recorded in response to 15‐second voltage steps to −20, 0, and 20 mV from a holding potential of −78 mV. Currents recorded at each voltage and each drug concentration were averaged over the duration of the trace and normalized to the average amplitudes of the corresponding current traces in drug‐free solution. […] Single channel data were analyzed using Ana software developed by Dr Michael Pusch (Istituto di Biofisica, Genova, Italy; http://users.ge.ibf.cnr.it/pusch/programs-mik.htm). […]
Background: Patch clamp records ionic current or voltage across a cell membrane.
Turning to `Cc1c(O)cccc1C(=O)N[C@@H](CSc1ccccc1)[C@H](O)CN1C[C@H]2CCCC[C@H]2C[C@H]1C(=O)NC(C)(C)C` [nelfinavir mesylate], it took 8 ± 1.1 nM to reach half-maximal inhibition (IC50).

Take `O=C(OCCN1CCN(c2cccc(C(F)(F)F)c2)CC1)c1ccccc1Nc1ccnc2cc(C(F)(F)F)ccc12` [antrafenine]: it took 12.3 ± 3.9 nM to reach half-maximal inhibition (IC50). For `CC(C)c1c(C(=O)Nc2ccccc2)c(-c2ccccc2)c(-c2ccc(F)cc2)n1CC[C@@H](O)C[C@@H](O)CC(=O)O` [atorvastatin], the IC50 was determined as 1200 ± 300 nM.
